Earlier results, collected in publication PMC3991022, “Comparison of Functional Protein Transduction Domains Using the NEMO Binding Domain Peptide” (Pharmaceuticals, 2010).

Tested on: mouse model of collagen induced arthritis
Set-up: method as in PMID 15156202
Settings: injection of NBD peptide

**Q.** With TALDWSWLQTE [NBD peptide] as the sequence, how does the amelioration of arthritis read?
**A.** significantly ameliorated the arthritis
